Measured values published in patent publication US20250346597A1, “CONDENSED HETEROCYCLIC COMPOUNDS AS INHIBITOR OF DIACYLGLYCEROL KINASES” (BEONE MEDICINES I GMBH, priority 2023, published 2025).

What was measured:
DGKζ = DGKζ (Homo sapiens (Human), UniProt Q13574); assay: Biochemical DGK IC50 assay (ADP-Glo, lipid micelle substrate), DGKζ; conditions: full length DGKζ 0.5 nM, ATP 140 μM, DAG 80 μM
Experimental: (§1) Enzymatic reactions of DGKζ, DGKα and DGKδ were performed using ADP-Glo assay with lipid micelle substrate. […] Full length DGKα (D21-10BG, SignalChem) and full length DGKδ (D23-10G, SignalChem) were purchased. Lipid micelle was prepared by dissolving DAG (Sigma, 317505-10MG) and PS (Sigma, P7769-100MG) with chloroform which was furtherly removed by rotary evaporation. The resulted product was resuspended in buffer containing 25 mM HEPES pH 7.0, 0.5 mM EDTA and 160 mM Octyl P-D glucopyranoside by vigorous mixing and ultrasonic (IID, Scientz).
(§2) The inhibition activities testing for the compound disclosed herein were carried out at room temperature in assay buffer containing 50 mM HEPES, 10 mM MgCl2, 0.01% BSA, 0.1 mM Na3VO4, 0.005% Tween-20 and 0.01 mM CaCl2. Compounds in DMSO were dispensed into wells of a black 384 well plate (Corning 4514) using D300e digital dispenser (Tecan). […] 3 μL 2× enzyme solution was added to wells. […] After 1 hour reaction, 5 μL ADP-Glo reagent (Promga V9101) was added and incubated for 40 minutes. 10 μL Kinase Detection reagent was added and incubated for 30 minutes. Luminescence was measured on a microplate reader (PHERAstar FSX, BMG labtech). The IC50s are calculated based on inhibition of enzyme activity in the presence of increasing concentrations of compounds.
Human His-TEV-DGK-zeta-pFastBac1 and human baculovirus samples was generated using the Bac-to-Bac baculovirus expression system (Invitrogen) according to the manufacturer's protocol. The DNA used for expression of DGK-zeta, have SEQ ID Nos: 1. Baculovirus amplification was achieved using infected SF9 cells at 1:2000 virus/cells ratios, and grown for 96 hours at 27° C. post-transfected.
The expression scaled up for each protein was carried out in the […] from CORNING. 4 L of 3×10^6 cells/mL Sf9 cells (Expression System, Invitrogen) grown in SF900™ II SFM insect medium (Expression System) was infected with virus stock at 1:200 virus/cells ratio, and grown for 48 hours at 27° C. post-transfection. The infected cell culture was harvested by centrifugation at 6000 rpm for 15 min 4° C. in a SORVALL LYNX6000 centrifuge. The cell pellets were stored at −80° C.
Full length human DGKζ produced as described above, was purified from Sf9 baculovirus-infected insect cell paste. The cells were lysed using sonication method, and the lysates were clarified by centrifugation.

DGKα = DGKα (Homo sapiens (Human), UniProt P23743); assay: Biochemical DGK IC50 assay (ADP-Glo, lipid micelle substrate), DGKα; conditions: full length DGKα […], ATP 140 μM, DAG 80 μM; note: full length DGKα 7.5 nM
Chain of DGKα (P23743 whole entry): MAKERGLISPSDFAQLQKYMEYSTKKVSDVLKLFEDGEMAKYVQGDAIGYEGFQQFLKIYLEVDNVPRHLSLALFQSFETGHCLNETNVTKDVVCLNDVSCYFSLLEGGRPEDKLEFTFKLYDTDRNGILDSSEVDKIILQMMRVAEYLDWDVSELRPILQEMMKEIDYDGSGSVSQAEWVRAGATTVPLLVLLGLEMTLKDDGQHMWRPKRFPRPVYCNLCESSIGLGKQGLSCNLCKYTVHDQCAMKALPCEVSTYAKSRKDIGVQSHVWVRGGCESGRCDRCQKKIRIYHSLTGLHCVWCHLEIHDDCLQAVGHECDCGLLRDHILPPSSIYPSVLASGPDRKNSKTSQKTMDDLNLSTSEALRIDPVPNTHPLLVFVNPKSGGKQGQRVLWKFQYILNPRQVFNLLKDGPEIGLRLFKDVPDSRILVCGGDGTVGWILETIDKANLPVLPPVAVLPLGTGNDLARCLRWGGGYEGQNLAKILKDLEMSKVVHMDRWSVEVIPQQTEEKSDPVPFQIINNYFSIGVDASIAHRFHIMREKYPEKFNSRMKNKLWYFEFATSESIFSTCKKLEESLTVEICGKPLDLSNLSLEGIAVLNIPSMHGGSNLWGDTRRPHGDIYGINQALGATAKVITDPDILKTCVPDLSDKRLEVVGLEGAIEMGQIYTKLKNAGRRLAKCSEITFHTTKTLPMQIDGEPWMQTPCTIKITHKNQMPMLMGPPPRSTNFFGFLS
Experimental: as §1, §2

Chain of DGKζ (Q13574 other isoform, or with tags, fused parts or gaps): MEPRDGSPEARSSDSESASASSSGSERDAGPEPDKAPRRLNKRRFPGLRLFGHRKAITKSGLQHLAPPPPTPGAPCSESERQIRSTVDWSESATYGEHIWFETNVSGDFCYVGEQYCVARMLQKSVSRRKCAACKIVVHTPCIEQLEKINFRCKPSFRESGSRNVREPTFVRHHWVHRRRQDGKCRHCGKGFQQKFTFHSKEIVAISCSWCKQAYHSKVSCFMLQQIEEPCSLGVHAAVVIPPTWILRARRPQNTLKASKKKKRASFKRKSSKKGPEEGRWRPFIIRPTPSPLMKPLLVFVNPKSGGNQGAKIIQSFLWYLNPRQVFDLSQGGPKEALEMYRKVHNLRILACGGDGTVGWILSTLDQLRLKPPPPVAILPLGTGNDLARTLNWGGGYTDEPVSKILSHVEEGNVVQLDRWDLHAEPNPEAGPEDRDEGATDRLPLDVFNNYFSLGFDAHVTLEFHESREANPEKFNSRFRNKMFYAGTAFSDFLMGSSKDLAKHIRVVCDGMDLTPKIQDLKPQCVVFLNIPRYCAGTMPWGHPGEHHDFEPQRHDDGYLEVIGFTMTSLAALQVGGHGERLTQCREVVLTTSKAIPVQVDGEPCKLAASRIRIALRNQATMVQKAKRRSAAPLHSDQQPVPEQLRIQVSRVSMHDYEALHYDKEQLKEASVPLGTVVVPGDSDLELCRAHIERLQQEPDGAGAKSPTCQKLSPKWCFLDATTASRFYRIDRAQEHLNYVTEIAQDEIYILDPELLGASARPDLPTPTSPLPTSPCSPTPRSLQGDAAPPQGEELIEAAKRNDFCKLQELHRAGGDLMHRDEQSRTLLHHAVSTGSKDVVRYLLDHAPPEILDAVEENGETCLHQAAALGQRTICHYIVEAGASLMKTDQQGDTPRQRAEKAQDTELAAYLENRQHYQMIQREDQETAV

Row | Compound | IC50 (DGKζ) | IC50 (DGKα)
1 | CC[C@H]1CN(C(C)c2ccc(OC(C)C)cn2)[C@H](CC)CN1c1cc(=O)n(C)c2cn(CC#N)nc12 (single isomer, unassigned) [Compound A51b] | 1800 nM | 337 nM
2 | CC[C@H]1CN(C(C)c2ccc(C)c(C)n2)[C@H](CC)CN1c1cc(=O)n(C)c2cn(CC#N)nc12 (single isomer, unassigned) [Compound A54b] | 1890 nM | 1910 nM
3 | CC[C@H]1CN(C(C)c2ccc3c(c2)OCO3)[C@H](CC)CN1c1cc(=O)n(C)c2cn(CC#N)nc12 (single isomer, unassigned) [Compound A68b] | 2550 nM | 1390 nM
4 | CC[C@H]1CN(C(C)c2ccc3c(n2)OCO3)[C@H](CC)CN1c1cc(=O)n(C)c2cn(CC#N)nc12 (single isomer, unassigned) [Compound A75b] | 5050 nM | 1110 nM
5 | CC[C@H]1CN(C(C)c2ccc3ccnn3c2)[C@H](CC)CN1c1cc(=O)n(C)c2cn(CC#N)nc12 (single isomer, unassigned) [Compound A77b] | 859 nM | 744 nM
6 | CC[C@H]1CN(C(C)c2ccn3ccnc3c2)[C@H](CC)CN1c1cc(=O)n(C)c2cn(CC#N)nc12 (single isomer, unassigned) [Compound A80a] | 939 nM | 140 nM
7 | CC[C@H]1CN(C(C)c2ccn3ccnc3c2)[C@H](CC)CN1c1cc(=O)n(C)c2cn(CC#N)nc12 (single isomer, unassigned) [Compound A80b] | 6900 nM | 3040 nM
8 | CC[C@H]1CN(C(C)c2ccc3nccn3c2)[C@H](CC)CN1c1cc(=O)n(C)c2cn(CC#N)nc12 (single isomer, unassigned) [Compound A82b] | 8520 nM | 3050 nM
9 | CC[C@H]1CN(C(C)c2ccc3cncn3c2)[C@H](CC)CN1c1cc(=O)n(C)c2cn(CC#N)nc12 (single isomer, unassigned) [Compound A83a] | 8790 nM | 648 nM
10 | CC[C@H]1CN(C(C)c2ccc3cncn3c2)[C@H](CC)CN1c1cc(=O)n(C)c2cn(CC#N)nc12 (single isomer, unassigned) [Compound A83b] | 1800 nM | 90 nM
11 | CC[C@H]1CN(C(C)c2ccc3ncoc3c2)[C@H](CC)CN1c1cc(=O)n(C)c2cn(CC#N)nc12 (single isomer, unassigned) [Compound A84b] | 3180 nM | 1170 nM
12 | CC[C@@H]1CN(c2cc(=O)n(C)c3cn(CC#N)nc23)[C@@H](C)CN1[C@H](C)c1ccc2ncoc2c1 (single isomer, unassigned) [Compound A85b] | 3500 nM | 2040 nM
13 | CC[C@H]1CN(C(C)c2ccc(NC(C)=O)c(O)c2F)[C@H](CC)CN1c1cc(=O)n(C)c2cn(CC#N)nc12 (single isomer, unassigned) [Compound A87a] | 2820 nM | 2010 nM
14 | CC[C@H]1CN(C(C)c2ccc(NC(C)=O)c(O)c2F)[C@H](CC)CN1c1cc(=O)n(C)c2cn(CC#N)nc12 (single isomer, unassigned) [Compound A87b] | > 10000 nM | 35200 nM
15 | CC[C@H]1CN(C(C)c2cnc3ncsc3c2)[C@H](CC)CN1c1cc(=O)n(C)c2cn(CC#N)nc12 (single isomer, unassigned) [Compound A98b] | 2870 nM | 9470 nM
16 | CC[C@H]1CN(C(C)c2ccc3ncsc3n2)[C@H](CC)CN1c1cc(=O)n(C)c2cn(CC#N)nc12 (single isomer, unassigned) [Compound A99a] | 3520 nM | 1740 nM
17 | CC[C@@H]1CN(c2cc(=O)n(C)c3cn(CC#N)nc23)[C@@H](C)CN1C(C)c1ccc2ncsc2n1 (single isomer, unassigned) [Compound A100b] | 2610 nM | 2890 nM
18 | CC[C@H]1CN(C(C)c2cc(F)c3ncsc3c2)[C@H](CC)CN1c1cc(=O)n(C)c2cn(CC#N)nc12 (single isomer, unassigned) [Compound A101b] | 1240 nM | 17700 nM
19 | CC[C@H]1CN(C(C)c2cc3scnc3cc2F)[C@H](CC)CN1c1cc(=O)n(C)c2cn(CC#N)nc12 (single isomer, unassigned) [Compound A103b] | 629 nM | 1350 nM

Stronger by IC50 (DGKζ), values ahead:

Row | IC50 (DGKζ) | IC50 (DGKα) | Compound
20 | 108 nM | 788 nM | CC[C@H]1CN(C(C)c2ccc(C3CC3)nc2)[C@H](CC)CN1c1c(F)c(=O)n(C)c2cn(CC#N)nc12 (single isomer, unassigned) [Compound A48b]
21 | 33 nM | 76 nM | CC[C@H]1CN(C(C)c2ccc(C)c(C)n2)[C@H](CC)CN1c1cc(=O)n(C)c2cn(CC#N)nc12 (single isomer, unassigned) [Compound A54a]
22 | 49 nM | 97 nM | CC[C@H]1CN(C(C)c2ccc3c(c2)OCO3)[C@H](CC)CN1c1cc(=O)n(C)c2cn(CC#N)nc12 (single isomer, unassigned) [Compound A68a]
23 | 139 nM | 74 nM | CC[C@H]1CN(C(C)c2ccc3c(n2)OCO3)[C@H](CC)CN1c1cc(=O)n(C)c2cn(CC#N)nc12 (single isomer, unassigned) [Compound A75a]
24 | 54 nM | 178 nM | CC[C@H]1CN(C(C)c2ccc3ccnn3c2)[C@H](CC)CN1c1cc(=O)n(C)c2cn(CC#N)nc12 (single isomer, unassigned) [Compound A77a]
25 | 486 nM | 109 nM | CC[C@H]1CN(C(C)c2ccc3nccn3c2)[C@H](CC)CN1c1cc(=O)n(C)c2cn(CC#N)nc12 (single isomer, unassigned) [Compound A82a]
26 | 43 nM | 68 nM | CC[C@H]1CN(C(C)c2ccc3ncoc3c2)[C@H](CC)CN1c1cc(=O)n(C)c2cn(CC#N)nc12 (single isomer, unassigned) [Compound A84a]
27 | 78 nM | 170 nM | CC[C@@H]1CN(c2cc(=O)n(C)c3cn(CC#N)nc23)[C@@H](C)CN1[C@@H](C)c1ccc2ncoc2c1 (single isomer, unassigned) [Compound A85a]
28 | 9.1 nM | 108 nM | CC[C@@H]1CN(c2cc(=O)n(C)c3cn(CC#N)nc23)[C@@H](C)CN1C(C)c1ccc2ncsc2c1 (single isomer, unassigned) [Compound A92a]
29 | 265 nM | 1020 nM | CC[C@@H]1CN(c2cc(=O)n(C)c3cn(CC#N)nc23)[C@@H](C)CN1C(C)c1ccc2ncsc2c1 (single isomer, unassigned) [Compound A92b]
30 | 108 nM | 5510 nM | CC[C@H]1CN(C(C)c2cnc3ncsc3c2)[C@H](CC)CN1c1cc(=O)n(C)c2cn(CC#N)nc12 (single isomer, unassigned) [Compound A98a]
31 | 8.6 nM | 24 nM | CC[C@H]1CN(C(C)c2ccc3ncsc3n2)[C@H](CC)CN1c1cc(=O)n(C)c2cn(CC#N)nc12 (single isomer, unassigned) [Compound A99b]
32 | 46 nM | 85 nM | CC[C@@H]1CN(c2cc(=O)n(C)c3cn(CC#N)nc23)[C@@H](C)CN1C(C)c1ccc2ncsc2n1 (single isomer, unassigned) [Compound A100a]
33 | 19 nM | 2610 nM | CC[C@H]1CN(C(C)c2cc(F)c3ncsc3c2)[C@H](CC)CN1c1cc(=O)n(C)c2cn(CC#N)nc12 (single isomer, unassigned) [Compound A101a]
34 | 14 nM | 92 nM | CC[C@H]1CN(C(C)c2cc3scnc3cc2F)[C@H](CC)CN1c1cc(=O)n(C)c2cn(CC#N)nc12 (single isomer, unassigned) [Compound A103a]
35 | 6.5 nM | 3150 nM | CC[C@@H]1CN(c2cc(=O)n(C)c3cn(CC#N)nc23)[C@@H](C)CN1C(C)c1ccc2nc(C)sc2c1F (single isomer, unassigned) [Compound A104a]
36 | 220 nM | 18400 nM | CC[C@@H]1CN(c2cc(=O)n(C)c3cn(CC#N)nc23)[C@@H](C)CN1C(C)c1ccc2nc(C)sc2c1F (single isomer, unassigned) [Compound A104b]
37 | 9 nM | 65 nM | CC[C@H]1CN(C(C)c2ccc3nsnc3c2)[C@H](CC)CN1c1cc(=O)n(C)c2cn(CC#N)nc12 (single isomer, unassigned) [Compound A106a]
38 | 600 nM | 932 nM | CC[C@H]1CN(C(C)c2ccc3nsnc3c2)[C@H](CC)CN1c1cc(=O)n(C)c2cn(CC#N)nc12 (single isomer, unassigned) [Compound A106b]
